This assay concerns T1, soluble HRP (horseradish peroxidase).
T1 construct: gene PRXC1A; soluble (free) enzyme, gift of Dr. Elba Bon (UFRJ)
The assay is described as follows: spectrophotometric, purpurogallin formation at […] nm, nonlinear hyperbolic fit. It counts as biochemical, Armoracia rusticana. The following applies: soluble enzyme; co-substrate H2O2 (0.25 mL of 5 mM); pyrogallol 4.0-48.7 mM; 28 °C; pH of kinetics not clearly stated (4.5 or 7.0).

Consider `Oc1cccc(O)c1O` [pyrogallol], for which the Km was found to be 5.47 ± 0.71 mM.

A word on the Km: it is the substrate concentration at which the rate is half of its maximum.

The values above are taken from publication PMC3349093, “Immobilized Horseradish Peroxidase on Discs of Polyvinyl Alcohol-Glutaraldehyde Coated with Polyaniline” (The Scientific World Journal, 2012).
